From PMC11574108, “4-Furanylvinylquinoline derivative as a new scaffold for the design of oxidative stress initiator and glucose transporter inhibitor drugs” (Scientific Reports, 2024)

How the values were obtained:
[1] = tested on: NHDF; assay: Monolayer MTS cytotoxicity against normal cells; format: cell-based; conditions: NHDF, normal human dermal fibroblasts, 72-h incubation
Source text: (§1) The human colon carcinoma cell line HCT 116 with wild-type p53 (p53^+/+) and the human glioblastoma cell line U-251 were obtained from ATCC, while the HCT 116 with a p53 deletion (p53^−/−) was kindly provided by Prof. M. Rusin from the Maria Sklodowska-Curie Memorial Cancer Center and Institute of Oncology in Gliwice, Poland. The human chronic myelogenous leukaemia cell line K562 and the normal human cell dermal fibroblast cell line NHDF were purchased from Sigma-Aldrich and PromoCell, respectively. Both the HCT 116 and U-251 cell lines were cultured in Dulbecco’s modified Eagle’s medium (DMEM) supplemented with 10% inactivated foetal bovine serum (FBS). The DMEM for the NHDF contained 15% non-inactivated FBS. K562 cells were cultured in RPMI medium completed by 10% inactivated FBS. Additionally, the media were supplemented with antibiotics (streptomycin and penicillin – 1% v/v; Sigma-Aldrich). The cell culture was conducted in 75 cm^2 flasks (Nunc) under standard conditions (37 °C, 5% CO2 humidified atmosphere). Furthermore, the cell lines were frequently tested for mycoplasma using the qRT-PCR technique with specific Mycoplasma primers to confirm the lack of contamination.
(§2) The cells were seeded in 96-well plates (Nunc) with 5,000 or 4,000 cells per well for the cancer cells and NHDF, respectively, and incubated under standard conditions at 37 °C overnight. The culture media were then changed for freshly prepared solutions of the tested compounds in various concentrations. After 72-h incubation the antiproliferative assay was carried out as follows: the solutions of the compounds were changed in each well to 100 µL DMEM without phenol red and 20 µL of CellTiter 96 AQueous One Solution-MTS (Promega). The plates were incubated for 1 h at 37 °C, and the absorbance was then measured at 490 nm using a multi-plate reader (Synergy 4, BioTek). The experiment for each sample was repeated at least three times.
(§3) Additionally, the compounds were also tested for their cytotoxicity against normal cells – human dermal fibroblasts (NHDF).

[2] = tested on: U-251; assay: Monolayer antiproliferative MTS assay; format: cell-based, human
Source text: as §1
as §2, with “times. The results are presented as the half-maximal inhibitory concentration (IC50) values, which were estimated in comparison to untreated cells (control) and calculated using GraphPad Prism v.8.0 (USA).” for “times.”
(§4) However, the antiproliferative activity of derivative 13 with furan a ring was surprising. […] For this purpose, we selected two pancreatic cancer cell lines: AsPC-1, which is characterised by a deletion of the p53 protein[20] and PANC-1, which carries an R273H mutation. This mutation also occurred in the glioblastoma U-251 cell line[22],[23]. An additional non-adherent line that carries the TP53 mutation that results in the absence of p53 is the K562 leukemic cell line[24]. […] Moreover, 13 was selective toward […], as indicated by its SI values (3.35–9.41). Among all of the tested cell lines, the highest activity of the compound was found against the HCT 116 cells with the wild-type p53 protein (0.069 µM). […] The p53 protein also interacts with the metabolic pathways that are associated with glucose transport[25] as well as small molecules. In light of the above-mentioned facts, we also determined the cytotoxicity of the GLUT inhibitor BAY-876, which is based on a quinoline scaffold. […] Furthermore, BAY-876 was also toxic to normal cells.

[3] = tested on: PANC-1; assay: Monolayer antiproliferative MTS assay; format: cell-based, human; conditions: 2D monolayer
Description: as §2, with “times. The results are presented as the half-maximal inhibitory concentration (IC50) values, which were estimated in comparison to untreated cells (control) and calculated using GraphPad Prism v.8.0 (USA).” for “times.”
as §4

[4] = tested on: AsPC-1; assay: Monolayer antiproliferative MTS assay; format: cell-based, human; conditions: 2D monolayer
Description: as §2, with “times. The results are presented as the half-maximal inhibitory concentration (IC50) values, which were estimated in comparison to untreated cells (control) and calculated using GraphPad Prism v.8.0 (USA).” for “times.”
as §4

[5] = tested on: HCT 116 p53-/-; assay: Monolayer antiproliferative MTS assay; format: cell-based, human; conditions: 2D monolayer
Source text: as §1, §2, §3

[6] = tested on: HCT 116 p53+/+; assay: Monolayer antiproliferative MTS assay; format: cell-based, human; conditions: 2D monolayer
Source text: as §1, §2, §3

[7] = tested on: GLUT-1; assay: qRT-PCR, GLUT-1 mRNA expression; format: cell-based, human; conditions: HCT 116 p53-/-, 24 and 48 h
Description: The cells were seeded in 35 mm Petri dishes at a density of 500,000 cells and incubated at 37 °C for 24 h. The total RNA was isolated after incubation with solutions of 13 (0.5 µM and 1.0 µM) for 24 h and 48 h, respectively. The isolation from the samples was carried out according to a TRIzol™ Reagent protocol (Thermo Fisher Scientific). Synthesis of cDNA was performed with 2 µg of total RNA using a GoScript™ Reverse Transcriptase kit (Promega) with Oligo(dT)23 Primers. Real-Time PCR was carried out using a CFX96 Touch™ Real-Time PCR Detection System (Bio-Rad) in 10 µL reaction volume. Each sample contained SsoAdvanced™ Universal SYBR Green Supermix (Bio Rad), a specific primer pair mix (0.5 µM each), and 1 µL of cDNA. […] The obtained data were analysed based on a comparison of the expression of the target genes and normalized to a reference gene (GAPDH) using the Livak-Schmittgen (2^−ΔΔCT) method. […]
To verify the effect of derivative 13 on glucose transporters at the mRNA level, the expression of the genes encoding the best-characterised glucose transporters in cells was quantified in real-time. In addition to GLUT-1, the effect of the tested derivative on changes in the expression of GLUT-3 and GLUT-4 was also evaluated (Fig. 8). […]

[8] = Homo sapiens, HCT-116, 72 h, MTS, 72-h incubation

## Cc1c(NC(=O)c2cc(C(N)=O)nc3cc(F)ccc23)c(C(F)(F)F)nn1Cc1ccc(C#N)cc1 [BAY-876]
[1]
  IC50: 4.33 ± 0.48 µM
[2]; 2D monolayer, relative to NHDF
  SI (selectivity index) U-251: < 0.17
[2]; Homo sapiens, U-251, 72 h, 2D monolayer, MTS, 72-h incubation
  IC50: > 25 µM
[2]; at 25 µM
  activity in U-251: not active
[3]; relative to NHDF
  SI (selectivity index) PANC-1: 123.71
[3]; Homo sapiens, PANC-1, 72 h, MTS, 72-h incubation
  IC50: 0.035 ± 0.004 µM
[4]; relative to NHDF
  SI (selectivity index) AsPC-1: 27.06
[4]; Homo sapiens, ASPC1, 72 h, MTS, 72-h incubation
  IC50: 0.16 ± 0.01 µM
[5]; relative to NHDF
  SI (selectivity index) HCT 116 p53-/-: 0.40
[5]; [8]
  IC50: 10.8 ± 0.81 µM
[6]; relative to NHDF
  SI (selectivity index) HCT 116 p53+/+: 2.53
[6]; [8]
  IC50: 1.71 ± 0.27 µM
[7]
  GLUT-1 mRNA level vs control: increased its expression
